Experiment: Study HDP-CDV-201: safety and tolerability (adverse events, laboratory abnormalities, discontinuations)
Format: in vivo, human (adult allogeneic HSCT recipients)
Details: for ALT, subject 4090 / AST, subject 4090 / Alk Phos, subject 4090 / Bilirubin, subject 4090: 100 BIW
Protocol: Clinical Studies of HDP-CDV were performed and described in detail in the following Examples. For example, HDP-CDV-201 is a placebo-controlled, dose-escalating trial in HSCT CMV (R+) recipients, evaluating the ability of HDP-CDV to prevent or control CMV infection was carried out. Five cohorts were established in which participants or subjects received either placebo or the HDP-CDV orally, in doses ranging from 40 mg weekly (QW) to 200 mg twice weekly (BIW). Subjects who were post-HSCT were enrolled at the time of engraftment and randomized to HDP-CDV or placebo (3 to 1 ratio) and received blinded therapy until approximately 100 day post-transplantation. HDP-CDV doses were 40 mg QW, 100 mg QW, 200 mg QW, 200 mg BIW and 100 mg BIW. Escalation to the next dose was decided by the data monitoring committee after review of the safety data from the previous Cohort. Subjects who developed CMV disease or CMV infection requiring pre-emptive therapy with local standard of care were discontinued from blinded therapy and followed for 4 weeks. Subjects who completed treatment with blinded therapy were followed for 8 weeks post-therapy.
Data from Study HDP-CDV-201 also provided characterization of the safety and tolerability profile of HDP-CDV when administered for the prevention or control of CMV infection in high risk (R^+) post-HSCT adult subjects.
The Safety population (SAFETY) included all randomized subjects who took at least one dose of study treatment. This population was used to summarize safety outcomes based on the treatment actually received, in cases where a subject was treated contrary to the randomization schedule.
The safety and tolerability profile of HDP-CDV, including subject demographics and Baseline characteristics; the AE profile; and laboratory abnormalities of interest were analyzed in the cohorts followed in this investigation.
Subjects completing the treatment period received a full course of study medication; those completing the entire study attended visits through 8 weeks of follow up. Subjects who discontinued treatment may have done so for protocol specified reasons (e.g. development of clinically significant CMV infection requiring preemptive treatment with excluded anti-CMV medications) or for other reasons (e.g., withdrawal, adverse events, loss to follow-up). The disposition of subjects in Study HDP-CDV-201 during the double-blind, placebo-controlled treatment period (through Week 11) is listed by dosing Cohort in TABLE 23.
Adverse events were examined by severity to ensure that all safety signals were identified in this study population. Because of the frequency of events in HSCT recipients, particular attention was given to evaluation of Grade 3 […], 4 (severe), and 5 (fatal) adverse events.
Only those preferred terms for which at least one Grade 3 or higher event was experienced in any treatment group are listed. Cytomegalovirus-related AEs are excluded from this analysis.
HDP-CDV is a lipid conjugate of CDV. Because CDV is known to have adverse effects on renal function and bone marrow, decreased GFR and persistent neutropenia were identified as AEs of special interest. Key renal and hematological (TABLE 30) laboratory parameters were measured and listed below by Study HDP-CDV-201 treatment groups. TABLE 30 includes abnormal levels of serum creatinine, neutrophils, platelets, WBCs, and hemoglobin and includes data at Screening and during the treatment period.
A common metric for unit based dosing of medications is by weight (mg/kg). When the distribution of weights was examined for all subjects participating in the study, the median was 78 kg and the lower 25th percentile weight was approximately 65 kg, which translates to a cut-off of ˜3 mg/kg for a 200 mg total weekly dose. Based upon this approach, a cut-off of 3 mg/kg was used to assess the frequency of diarrhea and associated GI AEs reported for the subjects in Cohorts 3 or 4a (TABLE 40).

In the case of `CCCCCCCCCCCCCCCCOCCCOP(=O)(O)COC(CO)Cn1ccc(N)nc1=O` (stereo not drawn) [HDP-CDV], the “TEAE LFT Abnormal, Grade 4” value (200 mg QW) is reported as 0, the “TEAE LFT Abnormal, Grade 5” value (200 mg QW) is reported as 0 and the “TEAE Leukocytosis, Frequency” value (200 mg QW) is reported as 2 (5.1%). The “TEAE Leukocytosis, Grade 2” value (200 mg QW) was 0, the “TEAE Leukocytosis, Grade 3” value (200 mg QW) was 0 and the “TEAE Leukocytosis, Grade 4” value (200 mg QW) was 0. The “TEAE Leukocytosis, Grade 5” value (200 mg QW) was 0, the “TEAE Nausea, Frequency” value (200 mg QW) was 11 (28.2%) and the “TEAE Nausea, Grade 2” value (200 mg QW) was 4 (10.3%). For the same compound, the “TEAE Nausea, Grade 3” value (200 mg QW) was 1 (2.6%), the “TEAE Nausea, Grade 4” value (200 mg QW) was 0 and the “TEAE Nausea, Grade 5” value (200 mg QW) was 0. The “TEAE Neutropenia, Frequency” value (200 mg QW) was 4 (10.3%), the “TEAE Neutropenia, Grade 2” value (200 mg QW) was 1 (2.6%) and the “TEAE Neutropenia, Grade 3” value (200 mg QW) was 3 (7.7%). For the same compound, the “TEAE Neutropenia, Grade 4” value (200 mg QW) was 0, the “TEAE Neutropenia, Grade 5” value (200 mg QW) was 0 and the “TEAE Pneumonia, Frequency” value (200 mg QW) was 0. The “TEAE Pneumonia, Grade 2” value (200 mg QW) was 0, the “TEAE Pneumonia, Grade 3” value (200 mg QW) was 0 and the “TEAE Pneumonia, Grade 4” value (200 mg QW) was 0. For the same compound, the “TEAE Pneumonia, Grade 5” value (200 mg QW) was 0, the “TEAE Pyrexia, Frequency” value (200 mg QW) was 7 (17.9%) and the “TEAE Pyrexia, Grade 2” value (200 mg QW) was 2 (5.1%). The “TEAE Pyrexia, Grade 3” value (200 mg QW) was 2 (5.1%), the “TEAE Pyrexia, Grade 4” value (200 mg QW) was 0 and the “TEAE Pyrexia, Grade 5” value (200 mg QW) was 0. For the same compound, the “TEAE Renal Failure, Frequency” value (200 mg QW) was 0, the “TEAE Renal Failure, Grade 2” value (200 mg QW) was 0 and the “TEAE Renal Failure, Grade 3” value (200 mg QW) was 0. For the same compound, the “TEAE Renal Failure, Grade 4” value (200 mg QW) was 0, the “TEAE Renal Failure, Grade 5” value (200 mg QW) was 0 and the “TEAE Staphylococcal Bacteremia, Frequency” value (200 mg QW) was 1 (2.6%). For the same compound, the “TEAE Staphylococcal Bacteremia, Grade 2” value (200 mg QW) was 0, the “TEAE Staphylococcal Bacteremia, Grade 3” value (200 mg QW) was 1 (2.6%) and the “TEAE Staphylococcal Bacteremia, Grade 4” value (200 mg QW) was 0. For the same compound, the “TEAE Staphylococcal Bacteremia, Grade 5” value (200 mg QW) was 0, the “TEAE Thrombocytopenia, Frequency” value (200 mg QW) was 0 and the “TEAE Thrombocytopenia, Grade 2” value (200 mg QW) was 0. The “TEAE Thrombocytopenia, Grade 3” value (200 mg QW) was 0, the “TEAE Thrombocytopenia, Grade 4” value (200 mg QW) was 0 and the “TEAE Thrombocytopenia, Grade 5” value (200 mg QW) was 0. For the same compound, the “TEAE Vomiting, Frequency” value (200 mg QW) was 6 (15.4%), the “TEAE Vomiting, Grade 2” value (200 mg QW) was 1 (2.6%) and the “TEAE Vomiting, Grade 3” value (200 mg QW) was 1 (2.6%). The “TEAE Vomiting, Grade 4” value (200 mg QW) was 0, the “TEAE Vomiting, Grade 5” value (200 mg QW) was 0 and the “subjects requiring treatment with steroids during the study” value (200 mg QW) was 59%. For the same compound, the “proportion of subjects with Grade 3 or higher ALT” value (200 mg QW (6 of 39)) was 15.8%, the “subjects who discontinued study medications” value (200 mg QW, fasted state) was 54% and the “Subjects Reporting Diarrhea as an AE” value (200 mg QW, n = 39) was 13 (33.3%). For the same compound, the “Discontinuation: Death” value (200 mg QW, active treatment period) was 3 (7.7%) Subject n (%), the “Discontinuation: Adverse event” value (200 mg QW, active treatment period through Week 11) was 7 (17.9%) Subject n (%) and the “subjects reporting SAEs involving the gastrointestinal tract” value (400 mg per week, given as 200 mg BIW) was 63%. The “ALT, subject 4090” value (Treatment Wk 8) was 445 U/L, the “AST, subject 4090” value (Treatment Wk 8) was 195 U/L and the “Alk Phos, subject 4090” value (Treatment Wk 8) was “Normal”. The “Bilirubin, subject 4090” value (Treatment Wk 8) was 44 µmol/L, the “ALT, subject 4090” value (Treatment Wk 10) was 792 U/L and the “AST, subject 4090” value (Treatment Wk 10) was 312 U/L. The “Alk Phos, subject 4090” value (Treatment Wk 10) was “Normal”, the “Bilirubin, subject 4090” value (Treatment Wk 10) was “Normal” and the “ALT, subject 4008” value (200 BIW, Posttreatment Wk 1) was 137 U/L. The “AST, subject 4008” value (200 BIW, Posttreatment Wk 1) was “Normal”, the “Bilirubin, subject 4008” value (200 BIW, Posttreatment Wk 1) was 48 µmol/L and the “Alk Phos, subject 4008” value (200 BIW, Posttreatment Wk 1, Previously elevated) was 117 U/L. The “ALT, subject 3001” value (200 QW, Post Treatment Wk 1) was 375 U/L, the “AST, subject 3001” value (200 QW, Post Treatment Wk 1) was 164 U/L and the “Bilirubin, subject 3001” value (200 QW, Post Treatment Wk 1) was 89 µmol/L. The “Alk Phos, subject 3001” value (200 QW, Post Treatment Wk 1, elevated) was 337 U/L, the “ALT, subject 3044” value (200 QW, Post Treatment Wk 4) was 227 U/L and the “AST, subject 3044” value (200 QW, Post Treatment Wk 4) was “Normal”. The “Bilirubin, subject 3044” value (200 QW, Post Treatment Wk 4) was 50 µmol/L, the “Alk Phos, subject 3044” value (200 QW, Post Treatment Wk 4, Previously elevated) was 174 U/L and the “Grade of hepatobiliary AE symptomatic gallstones, subject 1016” value (Cohort 1) was 3. For the same compound, the “Grade of hepatobiliary AE worsening hyperbilirubinemia, subject 1003” value (Cohort 1) was 4, the “Outcome of hepatobiliary AE symptomatic gallstones, subject 1016” value (Cohort 1) was “recovered/resolved” and the “Outcome of hepatobiliary AE worsening hyperbilirubinemia, subject 1003” value (Cohort 1) was “not recovered/not”. For the same compound, the “Relationship of hepatobiliary AE symptomatic gallstones, subject 1016” value (Cohort 1) was “not related”, the “Relationship of hepatobiliary AE worsening hyperbilirubinemia, subject 1003” value (Cohort 1) was “not related” and the “subjects discontinued due to neutropenia” value (Cohort 1) was 0 subject(s). For the same compound, the “ALT (Screening) >3 × ULN-5 × ULN, subjects” value (Cohort 1, 40 mg QW) was 0, the “ALT (Screening) >5 × ULN-10 × ULN, subjects” value (Cohort 1, 40 mg QW) was 0 and the “ALT (Screening) >10 × ULN-20 × ULN, subjects” value (Cohort 1, 40 mg QW) was 0. For the same compound, the “ALT (Screening) >20 × ULN, subjects” value (Cohort 1, 40 mg QW) was 0, the “ALT (any time during therapy) >3 × ULN-5 × ULN, subjects” value (Cohort 1, 40 mg QW) was 2 (8.7%) and the “ALT (any time during therapy) >5 × ULN-10 × ULN, subjects” value (Cohort 1, 40 mg QW) was 1 (4.3%). For the same compound, the “ALT (any time during therapy) >10 × ULN-20 × ULN, subjects” value (Cohort 1, 40 mg QW) was 0, the “ALT (any time during therapy) >20 × ULN, subjects” value (Cohort 1, 40 mg QW) was 0 and the “AST (Screening) >3 × ULN-5 × ULN, subjects” value (Cohort 1, 40 mg QW) was 0. The “AST (Screening) >5 × ULN-10 × ULN, subjects” value (Cohort 1, 40 mg QW) was 0, the “AST (Screening) >10 × ULN-20 × ULN, subjects” value (Cohort 1, 40 mg QW) was 0 and the “AST (Screening) >20 × ULN, subjects” value (Cohort 1, 40 mg QW) was 0. For the same compound, the “AST (any time during therapy) >3 × ULN-5 × ULN, subjects” value (Cohort 1, 40 mg QW) was 1 (4.3%), the “AST (any time during therapy) >5 × ULN-10 × ULN, subjects” value (Cohort 1, 40 mg QW) was 0 and the “AST (any time during therapy) >10 × ULN-20 × ULN, subjects” value (Cohort 1, 40 mg QW) was 0. The “AST (any time during therapy) >20 × ULN, subjects” value (Cohort 1, 40 mg QW) was 0, the “Alkaline Phosphatase (Screening) >2.5-5.0 × ULN, subjects” value (Cohort 1, 40 mg QW) was 0 and the “Alkaline Phosphatase (Screening) >5.0-20.0 × ULN, subjects” value (Cohort 1, 40 mg QW) was 0. For the same compound, the “Alkaline Phosphatase (Screening) >20.0 × ULN, subjects” value (Cohort 1, 40 mg QW) was 0, the “Alkaline Phosphatase (Screening) >ULN-[…] ULN, subjects” value (Cohort 1, 40 mg QW) was 6 (24.0%) and the “Alkaline Phosphatase (any time during therapy) >2.5-5.0 × ULN, subjects” value (Cohort 1, 40 mg QW) was 0. The “Alkaline Phosphatase (any time during therapy) >5.0-20.0 × ULN, subjects” value (Cohort 1, 40 mg QW) was 0, the “Alkaline Phosphatase (any time during therapy) >20.0 × ULN, subjects” value (Cohort 1, 40 mg QW) was 0 and the “Alkaline Phosphatase (any time during therapy) >ULN-[…] ULN, subjects” value (Cohort 1, 40 mg QW) was 6 (26.1%). The “GI AE Leading to Study Drug Discontinuation: Abdominal pain, subjects” value (Cohort 1, 40 mg QW) was 0, the “GI AE Leading to Study Drug Discontinuation: Diarrhoea, subjects” value (Cohort 1, 40 mg QW) was 0 and the “GI AE Leading to Study Drug Discontinuation: Dyspepsia, subjects” value (Cohort 1, 40 mg QW) was 0. The “GI AE Leading to Study Drug Discontinuation: Nausea, subjects” value (Cohort 1, 40 mg QW) was 0, the “GI AE Leading to Study Drug Discontinuation: Vomiting, subjects” value (Cohort 1, 40 mg QW) was 0 and the “GI AEs Leading to Study Drug Discontinuation: Total subjects discontinued” value (Cohort 1, 40 mg QW) was 0.
